This is an account of results in patent publication US10285961B2, “Organic acids as agents to dissolve calcium minerals in pathological calcification and uses thereof” (University of Houston System, priority 2014, dated 2019).

“Also recorded” adds a separate entry of the source.

The nature of data set [1]: In situ AFM of growth hillocks on the (010) face of COM crystals (step velocity). Here is the method: (§1) Atomic force microscopy (AFM, Bruker Multimode 4) was used to study the COM crystal surface topography at a nanometer length scale. Samples were mounted on a disk covered with a thin layer of thermally curable epoxy (MasterBond EP21AOLV). The epoxy was partially cured in an oven for ca. 20 min at 60° C. prior to transferring the crystals obtained from bulk crystallization. The crystals were immobilized on the epoxy with the or [010] direction oriented normal to the specimen surface by placing the sample in an oven at 60° C. for two to three hours to completely cure the epoxy. The cantilevers used in this study were silicon nitride probes with gold reflex coating and a spring constant of 0.15 N/m (Olympus, TR800PSA). AFM was also employed to observe the kinetics of crystal growth in supersaturated calcium oxalate solutions by monitoring the velocity of step advancement on the (010) surface and (100) surface of COM crystals in real time. The experiment was designed to assess the effects of a range of concentration of hydroxycitrate on step growth using a fluid cell (Bruker, MTFML) to produce an environment that mimics in situ crystallization. The fluid cell had two ports for inlet and outlet flow to maintain constant supersaturation during AFM measurements. A silicon O-ring was used to ensure no liquid leakage would occur while solutions were being continuously replenished. A dual syringe pump (CHEMYX, Fusion 200) was used to flow the solutions into the fluid cell.
Hydroxycitrate has four stereoisomers, […], (2S,3R), (2S,3S), and (2R,3R) (FIG. 1). In order to investigate the interaction between hydroxycitrate and COM crystal surface at a molecular level, atomic force microscopy was utilized. The growth of hillocks by screw dislocation on the (010) face of COM crystals were measured in real time in the absence and in the presence of 0.1 μg/mL HCA (FIGS. 2A-2F). Growth hillocks on (010) face are bounded by {021} and {12-1} faces. […] The temporal advancement of steps (i.e., step velocity) of the growth hillock in the absence and in the presence of a wide range of concentration of HCA was measured (FIGS. 3A-3B). […] These phenomena are conventional modes of crystal growth inhibition. […] This phenomenon confirms the role of HCA as a dissolving agent.

Data set [2] is described as follows: In situ AFM of growth hillocks on the (100) surface of COM crystals. The protocol: as §1, with “The experiment was designed to assess the effects of a range of concentration of hydroxycitrate on step growth using a fluid cell (Bruker, MTFML) to produce an environment that mimics in situ crystallization. The fluid cell had two ports for inlet and outlet flow to maintain constant supersaturation during AFM measurements. A silicon O-ring was used to ensure no liquid leakage would occur while solutions were being continuously replenished. A dual syringe pump (CHEMYX, Fusion 200) was used to flow the solutions into the fluid cell.” left out
The interaction between hydroxycitrate and the (100) surface of COM crystals was also observed using atomic force microscopy. The growth of hillocks by screw dislocation on the (100) surface of COM crystals were measured in real time in the absence and in the presence of 0.25 μg/mL HCA (FIGS. 4A-4F). […]

Data set [3] can be described thus: Exposure of fully grown COM crystals to HCA: optical microscopy and AFM surface roughness. The conditions noted are these: HCA (100 μg/mL) introduced at the end of crystallization period (3 days); optical micrographs. Here is the method:
Crystallization was carried out in a 20-mL glass vial by dissolving NaCl in deionized water then adding 0.7 mL of 10 mM CaCl2 stock solution which was prepared in advance. The sample vial was place in an oven set to 60° C. for one hour to ensure the crystallization was performed at 60° C. Subsequently 0.7 mL of […] Na2C2O4 stock solution was added to the solution dropwise while the solution was stirred at 400 rpm. To investigate the effect of hydroxycitrate […] COM crystallization, prepared hydroxycitrate stock solution was added to the solution dropwise at the end of three day crystallization period. A clean glass slide (ca. 1.3×1.3 cm^2) was placed at the bottom of the glass vial to readily collect the crystals prior to placing the vial in the oven. Final solution composition was set to be 0.7 mM CaCl2: 0.7 mM Na2C2O4: 150 mM NaCl and the amount of deionized water was adjusted to set the final volume to 10 mL. Crystallization was performed at 60° C. for three days without agitation. The glass slide was removed from the solution and dried at room temperature prior to analysis.
Morphology of COM crystals prepared in the absence and in the presence of OGMs were assessed and compared under optical microscope (Leica DM2500-M). Images were obtained in brightfield using reflectance. […]

Details of data set [4]: species or system human. The conditions noted are these: in vivo. Here is the method: In order for hydroxycitrate to have a direct effect on calcium oxalate stone formation, it must be excreted in the urine. As preliminary evidence of renal excretion in humans, over the counter hydroxycitrate supplements (trade name Super CitraMax) was administered to a normal healthy subject at a dose of 4.3 mmoles of hydroxycitrate two times a day (total daily dose of 8.6 mmoles) for three days. The standard dose recommended by the manufacturer is 12.9 mmoles per day. On the third day a 24 hour urine collection was performed. Hydroxycitrate excretion was measured using ion chromatography. […] Peak 1 is urine citrate, peak 2 is hydroxycitrate. Using a standard curve created using a high purity hydroxycitrate standard, hydroxycitrate excretion was calculated to be 1.28 mmoles per day. Thus, approximately 15% of the oral hydroxycitrate dose was excreted in the urine.

Data set [5] in a line: Upper limit of metastability of urine from patients with kidney stones. Also on record: species or system human. Particulars: for inhibition: calcium oxalate molar product at the point of crystallization: 8 urine samples, 37° C. for 4 hours. Here is the method: The crystal inhibition activity of hydroxycitrate in human urine was determined using measurement of upper limit of metastability. For this experiment, 8 urine samples from patients with kidney stones were used. The urine was either spiked with a known amount of an inhibitor or spiked with saline as control. Ten aliquots of each urine sample were added to the wells of a microtiter plate and increasing amounts of oxalate was added. The plates were incubated at 37° C. for 4 hours and then turbidity was measured using an enzyme-linked immunosorbent assay (ELISA) plate reader. The well with the lowest amount of oxalate in which increased turbidity is noted is considered the crystallization point. Multiplying the calcium concentration of the urine and the oxalate concentration (original oxalate plus the amount of oxalate added) at the point of crystallization provides a rough measure of saturation at the point of crystallization.
The upper limit of metastability assay was also used to compare the inhibitory activity of hydroxycitrate to that of other tricarboxyllic acids: citrate, isocitrate, and tricarballylate. […] Each of tricarboxyllic acids was added to urine samples from stone forming patients to provide a final concentration of 2 mM. The data are expressed as the increase of the calcium oxalate molar product at crystallization compared to the control urine sample without any inhibitor added.

Data set [6] in a line: Calcium ion selective electrode (ISE) measurement of COM crystallization kinetics. Particulars: synthetic versus extracted hydroxycitrate, slope of free calcium ion depletion relative to control. The protocol: A calcium ion selective electrode (ISE, ThermoScientific with Orion 9720BNWP Ionplus® electrode) was used to measure the effect of organic growth modifiers (OGMs) on the kinetics of COM crystallization which measures the concentration of free calcium ions in solution. Samples were prepared in the similar manner as COM bulk crystallization. Final solution composition was set to be 0.5 mM CaCl2: 0.5 mM Na2C2O4: 150 mM NaCl and the measurements were performed at room temperature. During ISE measurements, the stir rate was adjusted to 1200 rpm to minimize the induction time for nucleation. OGM efficacy was measured by calculating the temporal depletion of calcium ion concentration (ppm range). The data was normalized by subtracting the concentration of the initial time point from each time point. The rate of depletion was calculated by measuring the initial slope of the crystal growth curve. The efficacy of synthetic and extracted hydroxycitrate was assessed using the percent inhibition, which was calculated by comparing the reduced slopes for each OGM relative to that of the control (i.e., absence of OGM). Prior to ISE measurements, the electrode was calibrated using a standard calcium solution (0.1 M, Orion Ion Plus), which was diluted with deionized water to three concentrations: 10^−4, 10^−3 and 10^−2 M. The ionic strength of each solution was adjusted using a standard solution (ISA, Thermo Scientific), which was added in a 1:50 volume ratio of ISA-to-standard.
Additionally, the inhibitory efficacy of synthetic and extracted HCA was observed. An ion selective electrode measures the free calcium ion in the solution in the course of experiments. The efficacy of both HCA molecules was measured by calculating the temporal depletion of free calcium ion concentration in COM growth solutions. The data was normalized by subtracting the concentration of the initial time point from all time points. The rate of depletion was calculated by measuring the initial slope of the crystal growth curve. The efficacy of the synthetic and extracted HCA was assessed using the percent inhibition, which was calculated by comparing the slopes for each molecule relative to that of the control (i.e., in the absence of HCA).

Setting [7] is: 2 mM final concentration, comparison of tricarboxylic acids.

Take `O=C(O)CC(O)(C(=O)O)C(O)C(=O)O` (stereo not shown) [HCA, hydroxycitrate]: the “surface features of COM crystal” value in data set [1] (0.1 μg/mL HCA) is “signs of dissolution; also recorded: dissolves the COM crystal surface”; in data set [2] (0.1 μg/mL HCA as printed), “dissolves the COM crystal surface”; in data set [2] (0.25 μg/mL HCA), “etch pits start to form at step edges; also recorded: rapid formation of etch pits at the edge of steps”. For the same molecule, the “step velocity of growth hillocks” value was “decrease; also recorded: slightly decreases” in data set [1] (<021> and <12-1> directions, low concentration of HCA (<0.06 μg/mL)); “nearly zero; also recorded: ceases to zero” in data set [1] (high concentration of HCA (>0.15 μg/mL)); “negative velocity; also recorded: negative values” in data set [1] (intermediate concentration (0.06 μg/mL<CHCA<0.15 μg/mL)). Moreover, the overall crystal morphology result in data set [3] was “remained the same as that of the control; also recorded: maintained the same overall morphology”. The “fraction of the oral hydroxycitrate dose excreted in the urine” value in data set [4] is reported as “approximately 15%”. For the same molecule, the “inhibition: calcium oxalate molar product at the point of crystallization” value in data set [5] (1 mM final concentration) is listed as “greater inhibition than the control urine”; in data set [5] (2 mM final concentration), “greater inhibition than the 1 mM hydroxycitrate”. In addition, the “increase of the calcium oxalate molar product at crystallization compared to the control urine” value in data set [5] (setting [7]) is on record as “higher levels of inhibition compared to the other inhibitors”.

Regarding `O.O=C([O-])CC(O)(C(=O)[O-])C(O)C(=O)[O-].[K+].[K+].[K+]` (stereo not shown) [synthetic HCA, potassium hydroxycitrate tribasic monohydrate], the “efficacy (percent inhibition) on COM crystallization” value is recorded as “comparable effect” in data set [6] (listed as sHCA, monohydrate) and “comparable” in data set [6] (monohydrate).

For `O=C(O)CC(CC(=O)O)C(=O)O` [tricarballylate, reference compound], in data set [5] (setting [7]), the “difference of inhibition versus hydroxycitrate” value is reported as “reached statistical significance”.

With “(−)-Hydroxycitric acid calcium salt [extracted HCA]”, the “efficacy (percent inhibition) on COM crystallization” value is “comparable” in data set [6] (calcium salt) and “comparable effect” in data set [6] (listed as cHCA, calcium salt).
